Patent US7381705B2, “Inhibitors of hepatitis C virus” (The Administrators Of The Tulane Educational Fund, priority 2004, dated 2008)
Like-named read-outs stand apart in the source and are kept apart here. Ends that are not written are not given here. Peptide text beside a SMILES is read from it.

System: HCV pseudotype (HIV core proteins, HCV E1 and E2 of strain H77)
Conditions: for Percent inhibition: 25 μM; for Inhibition of HCV pseudotype infectivity (in words): summary of Tables 7 and 8
[1] = HCV H77 1a E2 peptides at ~25 μM, Table 7, virus alone 448,123
[2] = HCV J4 1b E2 peptides at ~25 μM, Table 8, controls as in Table 7

What does the source list for “RSELSPLLLSTTQWQVLP [compound 39, RSELSPLLLSTTQWQVLP]”?
Percent inhibition: 11.6%; Luciferase units [1]: 400,756 luciferase units (lumens)

CC(C)[C@H](NC(=O)CNC(=O)[C@H](CS)NC(=O)[C@@H]1CCCN1C(=O)[C@H](CCCNC(=N)N)NC(=O)[C@@H]1CCCN1)C(=O)N[C@H](C(=O)N1CCC[C@H]1C(=O)N[C@@H](C)C(=O)N[C@@H](CO)C(=O)N[C@@H](CCC(N)=O)C(=O)N[C@H](C(=O)N[C@@H](CS)C(=O)NCC(=O)N1CCC[C@H]1C(=O)N[C@H](C(=O)N[C@@H](Cc1ccc(O)cc1)C(=O)N[C@@H](CS)C(=O)O)C(C)C)C(C)C)C(C)C [compound 92, PRPCGVVPASQVCGPVYC] (H-PRPCGVVPASQVCGPVYC-OH; N-terminus and C-terminus assumed) was tested. Which Percent inhibition did it give?
The Percent inhibition was 16.9%.

What about the Luciferase units [2] of the same compound?
The Luciferase units was 372,400 luciferase units (lumens).

Which results are given for TKVCGAPPCVIGGVGNNT [compound 25]?
Percent inhibition: 7.2%; Luciferase units [1]: 480,280 luciferase units (lumens)

Which Percent inhibition does the source give for “NCNESLNTGWLAGLFYQH [compound 8, NCNESLNTGWLAGLFYQH]” here?
Its Percent inhibition is 74.6%.

What about the Luciferase units [1] of the same compound?
Its Luciferase units is 113,650 luciferase units (lumens).

What does the source list for CC[C@H](C)[C@H](NC(=O)[C@H](Cc1c[nH]cn1)NC(=O)[C@H](Cc1c[nH]c2ccccc12)NC(=O)[C@H](CO)NC(=O)CNC(=O)[C@H](CC(N)=O)NC(=O)[C@@H](NC(=O)[C@H](CC(N)=O)NC(=O)[C@@H](NC(=O)[C@H](CC(C)C)NC(=O)[C@H](CCC(N)=O)NC(=O)[C@@H](NC(=O)[C@H](CCCCN)NC(=O)[C@H](CCC(N)=O)NC(=O)[C@H](CO)NC(=O)[C@H](C)N)[C@@H](C)CC)C(C)C)[C@@H](C)O)C(=O)N[C@@H](CC(N)=O)C(=O)N[C@@H](CCCNC(=N)N)C(=O)O [compound 83, ASQKIQLVNTNGSWHINR]?
Percent inhibition: −15.8%; Luciferase units [2]: 518,993 luciferase units (lumens)

“HPEATYTKCGSGPWLTPR [compound 105, HPEATYTKCGSGPWLTPR]” was tested. Which Percent inhibition did it give?
Its Percent inhibition is −23.2%.

What about the Luciferase units [2] of the same compound?
Its Luciferase units is 552,170 luciferase units (lumens).

Which results are given for GSGLDERPYCWHYPPRPC [compound 14]?
Percent inhibition: 37.6%; Luciferase units [1]: 279,626 luciferase units (lumens)

Which results are given for LTPRCLVDYPYRLWHYPC [compound 107]?
Percent inhibition: 11.1%; Luciferase units [2]: 402,976 luciferase units (lumens)

GNWFGCTWMNSTGFTKVC [compound 23] was tested. Which Percent inhibition did it give?
The Percent inhibition was 17.9%.

And the Luciferase units [1]?
The Luciferase units was 367,916 luciferase units (lumens).

Which Percent inhibition does the source give for TKTCGGPPCNIGGVGNRT [compound 101] here?
The Percent inhibition was −12.0%.

And the Luciferase units [2]?
Its Luciferase units is 502,096 luciferase units (lumens).

Which Percent inhibition does the source give for KCGSGPWLTPRCLVDYPY [compound 106] here?
Its Percent inhibition is 60.4%.

And the Luciferase units [2]?
The Luciferase units was 193,533 luciferase units (lumens).

Which results are given for PTDCFRKHPEATYSRCGS [compound 28]?
Percent inhibition: 11.9%; Luciferase units [1]: 394,780 luciferase units (lumens)

What does the source list for “DWFAQGWGPITYTKPNSS [compound 89, DWFAQGWGPITYTKPNSS]”?
Percent inhibition: −0.3%; Luciferase units [2]: 449,293 luciferase units (lumens)

WMNSTGFTKVCGAPPCVI [compound 24] was tested. Which Percent inhibition did it give?
The Percent inhibition was 19.7%.

And the Luciferase units [1]?
Its Luciferase units is 391,886 luciferase units (lumens).

For CC[C@H](C)[C@H](NC(=O)[C@@H](N)Cc1c[nH]cn1)C(=O)N[C@@H](CC(N)=O)C(=O)N[C@@H](CCCNC(=N)N)C(=O)N[C@H](C(=O)N[C@@H](C)C(=O)N[C@@H](CC(C)C)C(=O)N[C@@H](CC(N)=O)C(=O)N[C@@H](CS)C(=O)N[C@@H](CC(N)=O)C(=O)N[C@@H](CC(=O)O)C(=O)N[C@@H](CO)C(=O)N[C@@H](CC(C)C)C(=O)N[C@@H](CCC(N)=O)C(=O)N[C@H](C(=O)NCC(=O)N[C@@H](Cc1ccccc1)C(=O)N[C@@H](Cc1ccccc1)C(=O)O)[C@@H](C)O)[C@@H](C)O [compound 84, HINRTALNCNDSLQTGFF], which Percent inhibition is on record?
The Percent inhibition was 12.5%.

What about the Luciferase units [2] of the same compound?
Its Luciferase units is 392,023 luciferase units (lumens).

How did the Percent inhibition turn out when “YTIFKVRMYVGGVEHRLE [compound 34, YTIFKVRMYVGGVEHRLE]” was run?
Its Percent inhibition is 21.8%.

And the Luciferase units [1]?
Its Luciferase units is 354,696 luciferase units (lumens).

“SPVVVGTTDRSGAPTYSW [compound 19, SPVVVGTTDRSGAPTYSW]” was tested. Which Percent inhibition did it give?
Its Percent inhibition is 32.7%.

And the Luciferase units [1]?
The Luciferase units was 301,406 luciferase units (lumens).

How did the Percent inhibition turn out when “TTLPALSTGLIHLHQNIV [compound 117, TTLPALSTGLIHLHQNIV]” was run?
The Percent inhibition was 19.8%.

And the Luciferase units [2]?
The Luciferase units was 359,236 luciferase units (lumens).

How did the Percent inhibition turn out when “HVTGGSAGRTTAGLVGLL [peptide 2, HVTGGSAGRTTAGLVGLL]” was run?
Its Percent inhibition is 0.2%.

And the Luciferase units [1]?
Its Luciferase units is 447,336 luciferase units (lumens).

Which Percent inhibition does the source give for “TTLPALSTGLIHLHQNIV [compound 42, TTLPALSTGLIHLHQNIV]” here?
Its Percent inhibition is 19.1%.

What about the Luciferase units [1] of the same compound?
The Luciferase units was 353,516 luciferase units (lumens).

Which results are given for “HPEATYSRCGSGPWITPR [compound 29, HPEATYSRCGSGPWITPR]”?
Percent inhibition: 33.6%; Luciferase units [1]: 297,353 luciferase units (lumens)

What does the source list for CC[C@H](C)[C@H](NC(=O)CNC(=O)[C@H](CS)NC(=O)[C@@H]1CCCN1C(=O)[C@H](CCCNC(=N)N)NC(=O)[C@@H]1CCCN1C(=O)[C@@H]1CCCN1C(=O)[C@H](Cc1ccc(O)cc1)NC(=O)[C@H](Cc1c[nH]cn1)NC(=O)[C@H](Cc1c[nH]c2ccccc12)NC(=O)[C@H](CS)NC(=O)[C@H](Cc1ccc(O)cc1)NC(=O)[C@@H]1CCCN1)C(=O)N[C@H](C(=O)N1CCC[C@H]1C(=O)N[C@@H](C)C(=O)N[C@@H](CCCCN)C(=O)N[C@@H](CO)C(=O)O)C(C)C [compound 15, PYCWHYPPRPCGIVPAKS] (H-PYCWHYPPRPCGIVPAKS-OH; N-terminus and C-terminus assumed)?
Percent inhibition: 43.5%; Luciferase units [1]: 253,410 luciferase units (lumens)

With CC[C@H](C)[C@H](NC(=O)[C@@H](NC(=O)[C@H](CS)NC(=O)[C@@H]1CCCN1)C(C)C)C(=O)NCC(=O)NCC(=O)N[C@H](C(=O)NCC(=O)N[C@@H](CC(N)=O)C(=O)N[C@@H](CC(N)=O)C(=O)N[C@H](C(=O)N[C@@H](CC(C)C)C(=O)N[C@@H](CC(C)C)C(=O)N[C@@H](CS)C(=O)N1CCC[C@H]1C(=O)N[C@H](C(=O)N[C@@H](CC(=O)O)C(=O)N[C@@H](CS)C(=O)O)[C@@H](C)O)[C@@H](C)O)C(C)C [compound 26, PCVIGGVGNNTLLCPTDC] (H-PCVIGGVGNNTLLCPTDC-OH; N-terminus and C-terminus assumed) as the compound, how does the Percent inhibition read?
The Percent inhibition was 51.6%.

And the Luciferase units [1]?
The Luciferase units was 216,706 luciferase units (lumens).

What does the source list for “KWEYVVLLFLLLADARVC [compound 47, KWEYVVLLFLLLADARVC]”?
Percent inhibition: 56.4%; Luciferase units [1]: 195,320 luciferase units (lumens)

Which results are given for “NNTRPPLGNWFGCTWMNS [compound 22, NNTRPPLGNWFGCTWMNS]”?
Percent inhibition: 45.2%; Luciferase units [1]: 245,900 luciferase units (lumens)

How did the Percent inhibition turn out when “LASCRRLTDFAQGWGPIS [compound 11, LASCRRLTDFAQGWGPIS]” was run?
Its Percent inhibition is 19.6%.

What about the Luciferase units [1] of the same compound?
The Luciferase units was 360,410 luciferase units (lumens).

Which Percent inhibition does the source give for “HYPCTLNFSIFKVRMYVG [compound 109, HYPCTLNFSIFKVRMYVG]” here?
The Percent inhibition was 79.4%.

What about the Luciferase units [2] of the same compound?
Its Luciferase units is 96,893 luciferase units (lumens).

And the “Inhibition of HCV pseudotype infectivity (in words)” value?
Its value is “inhibitory”.

Which Percent inhibition does the source give for ITPRCMVDYPYRLWHYPC [compound 31] here?
The Percent inhibition was 6.4%.

And the Luciferase units [1]?
The Luciferase units was 419,263 luciferase units (lumens).

How did the Percent inhibition turn out when “TDFAQGWGPISYANGSGL [compound 12, TDFAQGWGPISYANGSGL]” was run?
The Percent inhibition was 6.8%.

And the Luciferase units [1]?
The Luciferase units was 417,706 luciferase units (lumens).

CSCC[C@H](NC(=O)[C@@H](NC(=O)[C@H](CC(=O)O)NC(=O)[C@@H](NC(=O)[C@@H](N)CCC(=O)O)[C@@H](C)O)C(C)C)C(=O)N[C@@H](CC(C)C)C(=O)N[C@@H](CC(C)C)C(=O)N[C@@H](CC(N)=O)C(=O)N[C@@H](CC(N)=O)C(=O)N[C@H](C(=O)N[C@@H](CCCNC(=N)N)C(=O)N1CCC[C@H]1C(=O)N1CCC[C@H]1C(=O)N[C@@H](CCC(N)=O)C(=O)NCC(=O)N[C@@H](CC(N)=O)C(=O)N[C@@H](Cc1c[nH]c2ccccc12)C(=O)N[C@@H](Cc1ccccc1)C(=O)O)[C@@H](C)O [compound 98, ETDVMLLNNTRPPQGNWF] was tested. Which Percent inhibition did it give?
Its Percent inhibition is −4.4%.

And the Luciferase units [2]?
The Luciferase units was 467,636 luciferase units (lumens).

For “TYSWGANDTDVFVLNNTR [compound 20, TYSWGANDTDVFVLNNTR]”, which Percent inhibition is on record?
Its Percent inhibition is 48.4%.

What about the Luciferase units [1] of the same compound?
Its Luciferase units is 231,373 luciferase units (lumens).

FYQHKFNSSGCPERLASC [compound 9] was tested. Which Percent inhibition did it give?
Its Percent inhibition is −11.8%.

What about the Luciferase units [1] of the same compound?
The Luciferase units was 501,126 luciferase units (lumens).

For “LLSTTQWQVLPCSFTTLP [compound 40, LLSTTQWQVLPCSFTTLP]”, which Percent inhibition is on record?
The Percent inhibition was 1.3%.

And the Luciferase units [1]?
Its Luciferase units is 442,346 luciferase units (lumens).

Which Percent inhibition does the source give for “AFVSFAIKWEYILLLFLL [compound 119, AFVSFAIKWEYILLLFLL]” here?
Its Percent inhibition is 84.6%.

And the Luciferase units [2]?
The Luciferase units was 69,220 luciferase units (lumens).

Which results are given for “HINSTALNCNESLNTGWL [compound 7, HINSTALNCNESLNTGWL]”?
Percent inhibition: 14.9%; Luciferase units [1]: 381,340 luciferase units (lumens)

Which Percent inhibition does the source give for “MYVGGVEHRLEAACNWTR [compound 35, MYVGGVEHRLEAACNWTR]” here?
Its Percent inhibition is 66.7%.

What about the Luciferase units [1] of the same compound?
Its Luciferase units is 153,553 luciferase units (lumens).

What does the source list for PASQVCGPVYCFTPSPVV [compound 93]?
Percent inhibition: 9.7%; Luciferase units [2]: 409,220 luciferase units (lumens)

For “LLSTTEWQILPCAFTTLP [compound 115, LLSTTEWQILPCAFTTLP]”, which Percent inhibition is on record?
The Percent inhibition was −6.2%.

What about the Luciferase units [2] of the same compound?
The Luciferase units was 475,713 luciferase units (lumens).

For FYAHKFNSSGCPERMASC [compound 86], which Percent inhibition is on record?
The Percent inhibition was 11.2%.

What about the Luciferase units [2] of the same compound?
Its Luciferase units is 398,110 luciferase units (lumens).

What does the source list for “DYPYRLWHYPCTLNFSIF [compound 108, DYPYRLWHYPCTLNFSIF]”?
Percent inhibition: 90.9%; Luciferase units [2]: 40,853 luciferase units (lumens); Inhibition of HCV pseudotype infectivity (in words): inhibitory

What does the source list for “PVYCFTPSPVVVGTTDRS [compound 94, PVYCFTPSPVVVGTTDRS]”?
Percent inhibition: 30.4%; Luciferase units [2]: 311,736 luciferase units (lumens)

How did the Percent inhibition turn out when “TYSWGENETDVMLLNNTR [compound 97, TYSWGENETDVMLLNNTR]” was run?
The Percent inhibition was 51.2%.

And the Luciferase units [2]?
Its Luciferase units is 218,673 luciferase units (lumens).
